Read-outs that look alike come from different tables or passages of the source.
Columns and labels:
EGFR wild type = molecular target: T1, EGFR wild type (Homo sapiens, UniProt P00533); assay: Inhibition of EGFR wild type biochemical enzymatic activity (HTRF); details: EGFR WT, 1 mM ATP, 1 h, room temperature, read-out: IC50 (nM) @WT
T1 construct: purchased Carna Bio
Protocol: (§1) Biological Example 1: Inhibition of EGFR WT and Mutant Biochemical Enzymatic Activity
(§2) The inhibition potency of compounds against these enzymes was assessed using Homogenous Time Resolved Fluorescence approach (HTRF, CisBio. Cat No. 62TKOPEJ).
(§3) Inhibitory effects of the compounds were determined by measuring the enzymatic activity of EGFR enzyme phosphorylates 1 μM TK Substrate-biotin in the presence of 1 mM adenosine-5′-triphosphate (ATP) and varying concentrations of the test compound. The enzyme reaction buffer contains 5 mM MgCl2, 1 mM MnC12, 0.01% CHAPS, 1 mM dithiothreitol (DTT), 0.5% dimethylsulfoxide (DMSO), and 1× supplemented enzymatic buffer. The WT and mutant EGFR enzymes (SignalChem) were added to plates containing inhibitors, followed by activation of the kinase reaction by addition of ATP and peptide substrates. After incubation for 1 h at room temperature, the reaction was stopped by the addition of the detection reagent mix containing EDTA. The fluorescence was measured at 615 nm and 665 nm, respectively with excitation wavelength at 320 nm. The calculated signal ratio of 665 nm/615 nm is proportional to the kinase activity. The concentration of compound producing 50% inhibition of the respective kinase (IC50) was calculated using four-parameter logistic fit with XL-FIT.

EGFR[T790M/C797S/L858R] = molecular target: T2, EGFR[T790M/C797S/L858R] (Homo sapiens, UniProt P00533, C797S/L858R/T790M); assay: Inhibition of EGFR[T790M/C797S/L858R] biochemical enzymatic activity (HTRF); details: EGFR T790M-C797S-L858R, 1 mM ATP, 1 h, room temperature, read-out: IC50 (nM) @T790M- C797S - L858R
T2 construct: purchased Carna Bio
T2 sequence (P00533 25-1210 T790M/C797S/L858R): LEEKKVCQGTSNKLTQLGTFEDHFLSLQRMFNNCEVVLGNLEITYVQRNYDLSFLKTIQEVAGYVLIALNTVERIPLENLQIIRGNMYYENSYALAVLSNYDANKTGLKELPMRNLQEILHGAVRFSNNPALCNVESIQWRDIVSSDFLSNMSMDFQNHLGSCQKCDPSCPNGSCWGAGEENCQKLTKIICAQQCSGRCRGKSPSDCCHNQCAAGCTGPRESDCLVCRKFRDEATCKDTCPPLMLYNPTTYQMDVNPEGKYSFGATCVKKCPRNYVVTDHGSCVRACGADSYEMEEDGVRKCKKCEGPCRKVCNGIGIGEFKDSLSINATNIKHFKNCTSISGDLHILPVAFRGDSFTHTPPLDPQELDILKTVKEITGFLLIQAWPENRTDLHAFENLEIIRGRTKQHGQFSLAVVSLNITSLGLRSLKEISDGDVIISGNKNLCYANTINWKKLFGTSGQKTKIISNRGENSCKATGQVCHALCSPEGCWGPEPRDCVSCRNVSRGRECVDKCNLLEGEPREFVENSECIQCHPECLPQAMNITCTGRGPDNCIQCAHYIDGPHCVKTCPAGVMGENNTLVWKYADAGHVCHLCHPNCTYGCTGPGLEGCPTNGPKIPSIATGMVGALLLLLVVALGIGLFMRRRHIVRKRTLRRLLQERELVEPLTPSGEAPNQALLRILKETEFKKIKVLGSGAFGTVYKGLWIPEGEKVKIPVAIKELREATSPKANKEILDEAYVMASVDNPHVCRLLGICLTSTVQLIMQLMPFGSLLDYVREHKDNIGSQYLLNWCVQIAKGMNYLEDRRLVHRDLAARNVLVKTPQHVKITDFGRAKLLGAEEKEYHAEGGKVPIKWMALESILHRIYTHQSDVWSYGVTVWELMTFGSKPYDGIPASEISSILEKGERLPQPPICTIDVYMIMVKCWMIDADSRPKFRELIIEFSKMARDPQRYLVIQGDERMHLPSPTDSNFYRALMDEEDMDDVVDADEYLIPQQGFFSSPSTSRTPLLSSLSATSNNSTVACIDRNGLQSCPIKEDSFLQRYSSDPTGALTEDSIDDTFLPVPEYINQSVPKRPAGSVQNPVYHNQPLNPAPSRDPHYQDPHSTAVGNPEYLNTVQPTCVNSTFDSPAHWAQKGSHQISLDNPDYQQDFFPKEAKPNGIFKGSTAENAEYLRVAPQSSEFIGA
Protocol: as §1, §2, §3

EGFR (d746-750 C797S) = molecular target: T3, EGFR (d746-750 C797S) (Homo sapiens, UniProt P00533, C797S/DEL746-750); assay: Inhibition of EGFR (d746-750 C797S) biochemical enzymatic activity (HTRF); details: EGFR Del19-C797S, 1 mM ATP, 1 h, room temperature, read-out: IC50 (nM) @Del19-C797S
T3 construct: purchased signalchem
T3 sequence (P00533 with tags, fused parts or gaps DEL746-750/C797S limits assumed): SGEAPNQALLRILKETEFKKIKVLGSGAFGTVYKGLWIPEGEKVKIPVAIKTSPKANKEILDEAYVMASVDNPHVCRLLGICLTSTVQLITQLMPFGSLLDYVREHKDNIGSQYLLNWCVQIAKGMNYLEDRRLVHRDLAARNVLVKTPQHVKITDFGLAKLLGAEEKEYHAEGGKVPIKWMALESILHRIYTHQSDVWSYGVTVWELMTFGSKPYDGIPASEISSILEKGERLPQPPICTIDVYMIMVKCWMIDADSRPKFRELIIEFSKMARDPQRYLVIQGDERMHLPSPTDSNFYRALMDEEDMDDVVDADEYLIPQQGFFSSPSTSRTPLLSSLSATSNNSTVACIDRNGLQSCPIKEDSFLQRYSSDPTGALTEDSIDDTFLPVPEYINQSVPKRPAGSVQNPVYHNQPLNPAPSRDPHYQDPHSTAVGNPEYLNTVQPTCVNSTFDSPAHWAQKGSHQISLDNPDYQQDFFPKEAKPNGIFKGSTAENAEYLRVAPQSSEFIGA
Protocol: as §1, §2, §3

[1] = molecular target: T4, EGFR[T790M/C797S/d746-750] (Homo sapiens, UniProt P00533, C797S/DEL746-750/T790M); assay: Inhibition of EGFR[T790M/C797S/d746-750] biochemical enzymatic activity (HTRF); details: EGFR T790M-C797S-Del19, 1 mM ATP, 1 h, room temperature, read-out: IC50 (nM) @T790M - C797S - Del19
T4 construct: purchased Carna Bio
T4 sequence (P00533 with tags, fused parts or gaps DEL746-750/T790M/C797S limits assumed): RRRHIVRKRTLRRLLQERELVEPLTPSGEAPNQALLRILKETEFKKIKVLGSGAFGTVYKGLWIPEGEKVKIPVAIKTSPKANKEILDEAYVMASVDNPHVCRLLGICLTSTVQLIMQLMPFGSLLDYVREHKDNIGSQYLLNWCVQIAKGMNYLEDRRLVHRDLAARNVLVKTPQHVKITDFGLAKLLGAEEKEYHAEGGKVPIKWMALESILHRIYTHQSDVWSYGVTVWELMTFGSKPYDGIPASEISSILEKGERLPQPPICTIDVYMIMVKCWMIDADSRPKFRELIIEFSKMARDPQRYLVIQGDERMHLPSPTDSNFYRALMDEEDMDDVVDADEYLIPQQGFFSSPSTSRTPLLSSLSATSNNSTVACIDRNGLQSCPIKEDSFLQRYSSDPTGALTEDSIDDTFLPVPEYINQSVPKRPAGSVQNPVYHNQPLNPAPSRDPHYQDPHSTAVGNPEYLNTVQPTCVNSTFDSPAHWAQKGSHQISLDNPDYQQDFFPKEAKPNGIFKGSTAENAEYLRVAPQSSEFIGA
Protocol: as §1, §2, §3

EGFR Exon19Del = molecular target: T5, EGFR Exon19Del (Homo sapiens, UniProt P00533, DEL746-750); assay: Inhibition of EGFR Exon19Del biochemical enzymatic activity (HTRF); details: EGFR Del19, 1 mM ATP, 1 h, room temperature, read-out: IC50 @Del19
T5 construct: purchased Carna Bio
T5 sequence (P00533 with tags, fused parts or gaps DEL746-750 limits assumed): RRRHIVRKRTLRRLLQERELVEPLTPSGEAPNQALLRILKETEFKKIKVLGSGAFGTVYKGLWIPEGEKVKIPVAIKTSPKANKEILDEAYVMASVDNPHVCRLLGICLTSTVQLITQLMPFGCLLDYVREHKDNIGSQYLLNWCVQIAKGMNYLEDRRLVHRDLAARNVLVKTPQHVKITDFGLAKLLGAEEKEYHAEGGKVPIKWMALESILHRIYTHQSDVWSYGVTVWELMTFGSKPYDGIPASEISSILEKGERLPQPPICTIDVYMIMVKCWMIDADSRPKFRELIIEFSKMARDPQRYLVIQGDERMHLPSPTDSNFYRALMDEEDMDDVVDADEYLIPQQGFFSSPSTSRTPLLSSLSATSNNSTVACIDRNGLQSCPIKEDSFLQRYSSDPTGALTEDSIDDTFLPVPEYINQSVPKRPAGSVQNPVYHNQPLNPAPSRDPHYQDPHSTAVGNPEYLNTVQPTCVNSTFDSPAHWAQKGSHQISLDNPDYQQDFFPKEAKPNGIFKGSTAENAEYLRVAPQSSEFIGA
Protocol: as §1, §2, §3

PC-9 = assay: Cell proliferation assay, PC-9 cells (CellTiter-Glo, 72 hours); type: cell-based; details: PC9 cells, CellTiter-Glo, read-out: PC9 GI50
Protocol: (§4) Biological Example 2: Cell Proliferation Assays
(§5) Ba/F3 cells expressing EGFR mutations were seeded in 384-well plates at 5000 cells/well in RPMI1640 medium containing […]. PC-9 at 500 cells/well was seeded into 384-well plates in RPMI1640 medium with 10% FBS. After overnight incubation, the assay plates were dosed with compounds at a series of concentrations. Alongside dosing the assay plates, the day 0 plate was processed using CellTiter-Glo® Luminescent Cell Viability Assay (Promega) to measure the number of viable cells (G0). The assay plates were further incubated for 72 hours and the number of viable cells (G3) was measured. The percentage of proliferation was calculated as: […]=100×(G3 value of sample well−G0 value)/(G3 value of DMSO control−G0 value). The concentration of compound producing 50% proliferation inhibition (GI50) was further calculated in best-fit curves using XLFit software. N/A=not available.

EGFR Exon19Del/T790M = molecular target: T6, EGFR Exon19Del/T790M (Homo sapiens, UniProt P00533, DEL746-750/T790M); assay: Inhibition of EGFR Exon19Del/T790M biochemical enzymatic activity (HTRF); details: EGFR Del19-T790M, 1 mM ATP, 1 h, room temperature, read-out: IC50 (nM) @Del19-T790M
T6 construct: purchased Carna Bio
T6 sequence (P00533 with tags, fused parts or gaps DEL746-750/T790M limits assumed): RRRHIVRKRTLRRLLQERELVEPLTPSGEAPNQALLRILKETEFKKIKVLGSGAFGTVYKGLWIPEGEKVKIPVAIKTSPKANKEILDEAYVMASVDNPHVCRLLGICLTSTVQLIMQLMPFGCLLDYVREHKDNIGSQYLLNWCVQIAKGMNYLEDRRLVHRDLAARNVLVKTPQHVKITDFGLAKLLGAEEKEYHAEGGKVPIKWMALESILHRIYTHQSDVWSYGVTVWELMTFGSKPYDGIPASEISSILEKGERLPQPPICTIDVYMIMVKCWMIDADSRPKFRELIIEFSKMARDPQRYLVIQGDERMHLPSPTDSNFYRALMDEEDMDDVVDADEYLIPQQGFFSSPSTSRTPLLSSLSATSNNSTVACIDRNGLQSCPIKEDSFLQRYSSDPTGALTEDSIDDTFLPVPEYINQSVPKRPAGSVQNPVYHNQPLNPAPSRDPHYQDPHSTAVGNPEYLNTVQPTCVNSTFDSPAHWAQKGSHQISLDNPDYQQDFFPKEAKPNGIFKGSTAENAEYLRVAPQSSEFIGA
Protocol: as §1, §2, §3

[2] = tested on: Ba/F3 cells expressing EGFR mutations; assay: Cell proliferation assay, Ba/F3 cells expressing EGFR mutations (CellTiter-Glo, 72 hours); type: cell-based; details: CellTiter-Glo
Protocol: as §4, §5

EGFR L858R/T790M = molecular target: T7, EGFR L858R/T790M (Homo sapiens, UniProt P00533, L858R/T790M); assay: Inhibition of EGFR L858R/T790M biochemical enzymatic activity (HTRF); details: EGFR L858R-T790M, 1 mM ATP, 1 h, room temperature, read-out: IC50 (nM) @L858R-T790M
T7 construct: purchased Carna Bio
Protocol: as §1, §2, §3

EGFR L858R = molecular target: T8, EGFR L858R (Homo sapiens, UniProt P00533, L858R); assay: Inhibition of EGFR L858R biochemical enzymatic activity (HTRF); details: 1 mM ATP, 1 h, room temperature, read-out: IC50 (nM) @L858R
T8 construct: purchased Carna Bio
Protocol: as §1, §2, §3

EGFR (C797S L858R) = molecular target: T9, EGFR (C797S L858R) (Homo sapiens, UniProt P00533, C797S/L858R); assay: Inhibition of EGFR (C797S L858R) biochemical enzymatic activity (HTRF); details: EGFR L858-C797S, 1 mM ATP, 1 h, room temperature, read-out: IC50 (nM) @L858-C797S
T9 construct: purchased signalchem
Protocol: as §1, §2, §3

[3] = BaF3 cells, EGFR DEL19-C797S, read-out: DEL19-C797S/BaF3 GI50
[4] = BaF3 cells, EGFR DEL19-T790-C797S, read-out: DEL19-T790-C797S/BaF3 GI50
[5] = BaF3 cells, EGFR L858R, read-out: L858R/BaF3 GI50
[6] = BaF3 cells, EGFR L858R-C797S, read-out: L858R-C797S/BaF3 GI50
[7] = BaF3 cells, EGFR L858R-T790-C797S, read-out: L858R-T790-C797S/BaF3 GI50
[8] = BaF3 cells, EGFR L858R-T790M, read-out: L858R-T790M/BaF3 GI50
[9] = EGFR DEL19-T790M, read-out: DEL19-T790M GI50

T1 sequence (P00533 25-1210): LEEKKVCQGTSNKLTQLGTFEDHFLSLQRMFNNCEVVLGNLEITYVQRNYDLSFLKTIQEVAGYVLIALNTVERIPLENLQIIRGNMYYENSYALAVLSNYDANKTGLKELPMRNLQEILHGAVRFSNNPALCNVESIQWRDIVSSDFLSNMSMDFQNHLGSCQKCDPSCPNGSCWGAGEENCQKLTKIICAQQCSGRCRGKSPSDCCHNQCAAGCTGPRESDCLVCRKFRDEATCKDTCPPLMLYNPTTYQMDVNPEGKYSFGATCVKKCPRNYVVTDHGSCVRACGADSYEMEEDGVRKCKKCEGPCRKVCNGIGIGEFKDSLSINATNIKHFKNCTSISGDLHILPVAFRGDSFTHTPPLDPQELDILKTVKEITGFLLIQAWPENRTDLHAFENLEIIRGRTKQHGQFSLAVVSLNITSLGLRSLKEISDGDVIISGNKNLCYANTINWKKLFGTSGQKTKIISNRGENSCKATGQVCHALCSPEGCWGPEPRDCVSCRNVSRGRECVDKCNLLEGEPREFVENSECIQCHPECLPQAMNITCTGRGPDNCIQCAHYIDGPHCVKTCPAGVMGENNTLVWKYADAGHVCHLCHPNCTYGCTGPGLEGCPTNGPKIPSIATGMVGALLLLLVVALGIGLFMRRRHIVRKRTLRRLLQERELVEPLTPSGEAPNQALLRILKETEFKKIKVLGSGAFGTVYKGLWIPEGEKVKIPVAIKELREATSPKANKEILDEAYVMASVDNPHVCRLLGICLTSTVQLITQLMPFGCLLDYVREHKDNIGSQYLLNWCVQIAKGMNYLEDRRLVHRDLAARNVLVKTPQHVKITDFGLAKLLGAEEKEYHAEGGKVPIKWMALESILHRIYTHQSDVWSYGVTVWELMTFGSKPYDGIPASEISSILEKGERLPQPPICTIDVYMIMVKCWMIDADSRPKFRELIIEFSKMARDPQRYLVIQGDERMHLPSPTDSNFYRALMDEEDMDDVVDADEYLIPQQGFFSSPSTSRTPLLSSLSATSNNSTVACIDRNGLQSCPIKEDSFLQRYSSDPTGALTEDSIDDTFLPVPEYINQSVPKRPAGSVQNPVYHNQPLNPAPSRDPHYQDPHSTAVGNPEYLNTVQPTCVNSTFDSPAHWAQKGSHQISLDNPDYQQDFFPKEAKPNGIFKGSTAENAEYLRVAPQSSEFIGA

Row | SMILES | IC50 (EGFR wild type) [nM] | IC50 (EGFR[T790M/C797S/L858R]) [nM] | IC50 (EGFR (d746-750 C797S)) [nM] | IC50 [1] [nM] | IC50 (EGFR Exon19Del) [nM] | GI50 (PC-9) [nM] | IC50 (EGFR Exon19Del/T790M) [nM] | GI50 [2, 3] [nM] | GI50 [2, 4] [nM] | GI50 [2, 5] [nM] | GI50 [2, 6] [nM] | GI50 [2, 7] [nM] | GI50 [2, 8] [nM] | GI50 [2, 9] [nM] | IC50 (EGFR L858R/T790M) [nM] | IC50 (EGFR L858R) [nM] | IC50 (EGFR (C797S L858R)) [nM] | other results
1 | CN1CCC2(CCN(c3ccc4nc5n(c4c3)C34CCC(CN(CCOc6c(cnn6C)-c6cc(cn(C)c6=O)C(=O)N5)C3)C4)CC2)C1 (single isomer, unassigned) [Example A82A] | 341 | > 5000 | 226 | 629 | 310 | 92 | 1410 | 96 | 186 | 108 | 76 | 129 | 137 | 200 | > 5000 | 1210 | 2140 | –
2 | CN(C)CCN(C)c1ccc2nc3n(c2c1)C12CCC(CN(CCOc4c(cnn4C)-c4cc(cn(C)c4=O)C(=O)N3)C1)C2 (single isomer, unassigned) [Example A85A] | > 5000 | > 5000 | 308 | 3660 | 138 | 387 | > 5000 | 95 | 119 | 188 | 167 | 303 | 364 | 159 | > 5000 | 1590 | 1280 | –
3 | CN(C)CCC1CN(c2ccc3nc4n(c3c2)C23CCC(CN(CCOc5c(cnn5C)-c5cc(cn(C)c5=O)C(=O)N4)C2)C3)C1 (single isomer, unassigned) [Example A95B] | 55 | 3.3 | 1.5 | 2.7 | 1.7 | – | 3.1 | – | – | – | – | – | – | – | 3.7 | 7 | 4.7 | GI50 (PC-9; Homo sapiens, PC-9, 72 h): 2460 nM; GI50 ([2]; Mus musculus, BaF3, 72 h, BaF3 cells, EGFR DEL19-C797S, read-out: DEL19-C797S/BaF3 GI50): 95 nM; GI50 ([2]; Mus musculus, BaF3, 72 h, BaF3 cells, EGFR DEL19-T790-C797S, read-out: DEL19-T790-C797S/BaF3 GI50): 228 nM; GI50 ([2]; Mus musculus, BaF3, 72 h, BaF3 cells, EGFR L858R, read-out: L858R/BaF3 GI50): 357 nM; GI50 ([2]; Mus musculus, BaF3, 72 h, BaF3 cells, EGFR L858R-C797S, read-out: L858R-C797S/BaF3 GI50): 436 nM; GI50 ([2]; Mus musculus, BaF3, 72 h, BaF3 cells, EGFR L858R-T790-C797S, read-out: L858R-T790-C797S/BaF3 GI50): 574 nM; GI50 ([2]; Mus musculus, BaF3, 72 h, BaF3 cells, EGFR L858R-T790M, read-out: L858R-T790M/BaF3 GI50): 1080 nM; GI50 ([2]; Mus musculus, BaF3, 72 h, EGFR DEL19-T790M, read-out: DEL19-T790M GI50): 177 nM
4 | CN1C2CC1CN(c1ccc3nc4n(c3c1)C13CCC(CN(CCOc5c(cnn5C)-c5cc(cn(C)c5=O)C(=O)N4)C1)C3)C2 (single isomer, unassigned) [Example A98A] | > 5000 | > 5000 | 391 | 2080 | 235 | 297 | 3410 | 95 | 340 | 47 | 173 | 49 | 343 | 171 | > 5000 | 1270 | 3370 | –
5 | CN1CC2CC1CN2c1ccc2nc3n(c2c1)C12CCC(CN(CCOc4c(cnn4C)-c4cc(cn(C)c4=O)C(=O)N3)C1)C2 (single isomer, unassigned) [Example A105A] | > 5000 | > 5000 | 330 | 4190 | 381 | 683 | > 5000 | 100 | 341 | 617 | 263 | 652 | 246 | 363 | > 5000 | 2600 | 2770 | –

Further lines, with some results ahead:

Row | IC50 (EGFR wild type) [nM] | IC50 (EGFR[T790M/C797S/L858R]) [nM] | IC50 (EGFR (d746-750 C797S)) [nM] | IC50 [1] [nM] | IC50 (EGFR Exon19Del) [nM] | GI50 (PC-9) [nM] | IC50 (EGFR Exon19Del/T790M) [nM] | GI50 [2, 3] [nM] | GI50 [2, 4] [nM] | GI50 [2, 5] [nM] | GI50 [2, 6] [nM] | GI50 [2, 7] [nM] | GI50 [2, 8] [nM] | GI50 [2, 9] [nM] | IC50 (EGFR L858R/T790M) [nM] | IC50 (EGFR L858R) [nM] | IC50 (EGFR (C797S L858R)) [nM] | SMILES | other results
6 | > 5000 | > 5000 | 400 | > 5000 | 451 | 768 | > 5000 | 157 | 516 | 480 | 302 | 1040 | 997 | 545 | > 5000 | 1310 | 1140 | CN(C)C1CN(c2ccc3nc4n(c3c2)C23CCC(CN(CCOc5c(cnn5C)-c5cc(cn(C)c5=O)C(=O)N4)C2)C3)CC1F (single isomer, unassigned) [Example A84B, 15,21-Dimethyl-5-[4-fluoro-3-(N,N-dimethylamino)pyrrolidinyl]-23-oxa-2,9,11,15,20,21,26-heptaazaheptacyclo[24.4.1.1^{1,28}.1^{13,17}.0^{2,10}.0^{3,8}.0^{18,22}]tritriaconta-3,5,7,9,13,17(33),18(22),19-octaene-12,16-dione] | –
7 | > 5000 | > 5000 | 599 | > 5000 | 689 | 989 | > 5000 | 50 | 120 | 181 | 244 | 264 | 367 | 123 | > 5000 | 2120 | 2820 | CN1CCOC2(C1)CN(c1ccc3nc4n(c3c1)C13CCC(CN(CCOc5c(cnn5C)-c5cc(cn(C)c5=O)C(=O)N4)C1)C3)C2 (single isomer, unassigned) [Example A86A] | –

Source: patent US20260365670A1, “EGFR INHIBITORS AND USES THEREOF” (DIZAL (JIANGSU) PHARMACEUTICAL CO., LTD., priority 2022, published 2026)
